Tested on: mouse peritoneal macrophages
Assay: Mouse i.p. injection of LPS and ERG240, peritoneal macrophages analysed
Format: in vivo, C57BL/6 mice
Experimental: Figure 4 Bcat1 inhibition blocks itaconate production in vivo and polarizes peritoneal macrophages. Mouse peritoneal macrophages from vehicle (saline), LPS-injected (1.5 mg kg^−1) or LPS+ERG240 (500 mg kg^−1)–injected mice were isolated and pooled 24 h following i.p. injection (n=6 mice per group). Irg1 protein (a), mRNA (b) levels, as well as itaconate measurements by GC/MS (c) are shown. […] Peritoneal macrophages were collected 24 h following the LPS injection. n=3 mice/group. (d) Protein–protein interaction (PPI) network in 100 top (97 annotated) differentially expressed genes between LPS and LPS+ERG240 treated mouse peritoneal macrophages illustrated by STRING (high confidence score=0.7). The IFN-inducible GTPase cluster is shown within a dashed circle. (e) Distribution of the fold changes and the FDR-adjusted P values (−log10 (FDR)) for the comparison between LPS and LPS+ERG240 treated macrophages. The IFN- inducible GTPase genes, M1-like, M2-like and extracellular matrix transcripts are shown in blue. (f) Fragments per kilobase of transcript per Million mapped reads (FPKM) values for Nos2, Il6 are shown in vehicle, LPS and LPS+ERG240-treated peritoneal macrophages. (g) FPKM values for Ifit1, Ifit2, Ifit3, Gbp1, Gbp2, Gbp4, Gbp7, Mrc1, Klf4, Cd36, Fn1, Mmp9, Gsn and Spp1. FPKM=1 is shown as a dashed line to denote minimal expression levels. All transcripts analysed by RNA-seq (f,g) show significant FPKM upon ERG240 treatment when compared to LPS group (FDR<10^−73). Error bars are s.e.m. Significance was tested using one-way ANOVA. *P<0.05 by ANOVA.
The procedure was performed by Washington Biotechnology Inc. (Baltimore, MD). […] Same dose of ERG240 was administered a second time, 8 h following the first injection of LPS. Peritoneal macrophages were harvested 24 h after the LPS injection and results from three groups (vehicle, LPS only, LPS+ERG240; n=6 mice in each group) were analysed in terms of IRG1 and itaconate level measurements.
For itaconate, cells pellets containing 1.5 × 10^6 hMDMs were quenched with 400 μl of methanol, previously chilled at −20 °C. After addition of 400 μl of cold (4 °C) ultrapure water, cell pellets were vortexed briefly and then allowed to stand for 10 min on ice. Following addition of 400 μl of GC/MS grade dichloromethane, previously chilled at −20 °C, samples were vortexed again and centrifuged at 14,000g for 10 min at 4 °C. The aqueous layer of the samples was collected and lyophilized. Dried materials were dissolved in 40 μl of MOX solution, which is prepared by allowing 20 mg of methoxamine HCl (Sigma Aldrich) to dissolve in 500 μl pyridine for 30 min at room temperature. Metabolites dissolved in MOX were incubated at 45 °C for 60 min, derivatized by adding 60 μl of N-methyl-N-(trimethylsilyl) trifluoroacetamide (MSFTA, Mecherey-Nagel) and incubated at 45 °C for 30 min. After a brief centrifugation, derivatized metabolites were transferred into clean GC/MS vials and analysed for the presence of itaconic acid (itaconate) using a 7890A GC System (Agilent Technologies) equipped with an Agilent J&W DB-5ms column (30 m, 0.25 mm, 0.25 μm), connected to an 5975C Triple-Axis MS Detector (Agilent Technologies) and outfitted with an autosampler. The MS source was held at 230 °C and the quadrupole at 150 °C. The GC oven temperature was held at 50 °C for 5 min, increased to 240 °C at a rate of 10 °C min^−1, held at 240 °C for 5 min and increased to 300 °C at a rate of 10 °C min^−1. A volume of 1 μl was injected in the system in a 1:3 split mode. The amount of itaconate present in the sample was determined after peak integration. For citrate, the frozen cell pellets were re-suspended in ice-cold ethanol-phosphate buffer. Cells were lysed by three freeze-thaw cycles and sonication. Samples were centrifuged and the supernatant was used for further analysis. […]

[1] = LPS 1.5 mg kg^−1 + ERG240 500 mg kg^−1 i.p., 24 h
[2] = LPS+ERG240 vs LPS, peritoneal macrophages, 24 h

SMILES: CC(=O)C(C)CCC(=O)O (stereo not drawn) [ERG240]
- itaconate in peritoneal macrophages, sequential treatment (ERG240 administered 3 h after the first LPS injection, collected 24 h): equally decreased
- Il6, Gbp4 expression levels, sequential treatment (ERG240 administered following 3 hours of LPS, qRT-PCR): inhibitory effect
- Irg1 mRNA and protein levels in peritoneal macrophages [1]: reduction
- itaconate in peritoneal macrophages [1]: significant decrease
- IFN-inducible GTPase signature genes and M1-like markers (Nos2, Il6), RNA-seq [2]: down-regulated
- M2-like and extracellular matrix transcripts, RNA-seq [2]: up-regulated

— PMC5510229, “BCAT1 controls metabolic reprogramming in activated human macrophages and is associated with inflammatory diseases” (Nature Communications, 2017)
